From patent US20220096516A1, “OLIGONUCLEOTIDE MOLECULE AND APPLICATION THEREOF IN TUMOR THERAPY” (Ractigen Therapeutics, priority 2019, published 2022)
d = 2'-deoxy (DNA); r = 2'-OH (RNA)

Tested on: LHPP gene
Test: High-throughput screening of saRNAs targeting LHPP promoter: LHPP mRNA by one-step RT-qPCR in Huh7 cells
Assay type: cell-based, human
Details: 10 nM saRNA, 72 hours, relative to control (Mock)
Summary of the method: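 LHPP transcript level relative to mock, normalised to the geometric mean of the HPRT1 and TBP reference genes, measured by one-step RT-qPCR on crude lysates. Huh7 cells had been RNAiMax-transfected with each saRNA at 10 nM for 72 h.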

Substance | Fold of changes in relative LHPP mRNA expression level | Fold of changes in relative LHPP mRNA expression level (log2)
RAG7-114: saRNA duplex; sense CCUGGGAAGAAAGCUUCCGTT (SEQ ID NO: 73), antisense CGGAAGCUUUCUUCCCAGGTT (SEQ ID NO: 237) (sugars from the 5' end r19 d2, backbone not given here) | 1.28 fold | 0.36 log2
RAG7-125: saRNA duplex; sense UCCGCUGAUCUCCUGGGAATT (SEQ ID NO: 55), antisense UUCCCAGGAGAUCAGCGGATT (SEQ ID NO: 219) (sugars from the 5' end r19 d2, backbone not given here) | 1.36 fold | 0.44 log2
RAG7-853: saRNA duplex; sense AACUUGAAAGGUUCCGAGGTT (SEQ ID NO: 146), antisense CCUCGGAACCUUUCAAGUUTT (SEQ ID NO: 310) (sugars from the 5' end r19 d2, backbone not given here) | 1.14 fold | 0.18 log2
RAG7-109: saRNA duplex; sense GAAGAAAGCUUCCGAAAAGTT (SEQ ID NO: 90), antisense CUUUUCGGAAGCUUUCUUCTT (SEQ ID NO: 254) (sugars from the 5' end r19 d2, backbone not given here) | 1.24 fold | 0.31 log2
RAG7-692: saRNA duplex; sense GUCCUAUGCAUCCUCAUCUTT (SEQ ID NO: 124), antisense AGAUGAGGAUGCAUAGGACTT (SEQ ID NO: 288) (sugars from the 5' end r19 d2, backbone not given here) | 1.17 fold | 0.22 log2
RAG7-143: saRNA duplex; sense UGCUUUUCCUGCUCUUUGUTT (SEQ ID NO: 102), antisense ACAAAGAGCAGGAAAAGCATT (SEQ ID NO: 266) (sugars from the 5' end r19 d2, backbone not given here) | 1.21 fold | 0.28 log2
RAG7-899: saRNA duplex; sense AAAGCUAUGUUGGACCAGATT (SEQ ID NO: 84), antisense UCUGGUCCAACAUAGCUUUTT (SEQ ID NO: 248) (sugars from the 5' end r19 d2, backbone not given here) | 1.26 fold | 0.33 log2
RAG7-847: saRNA duplex; sense AAAGGUUCCGAGGGGCCAUTT (SEQ ID NO: 34), antisense AUGGCCCCUCGGAACCUUUTT (SEQ ID NO: 198) (sugars from the 5' end r19 d2, backbone not given here) | 1.48 fold | 0.56 log2
RAG7-837: saRNA duplex; sense AGGGGCCAUUGAGGAAACUTT (SEQ ID NO: 109), antisense AGUUUCCUCAAUGGCCCCUTT (SEQ ID NO: 273) (sugars from the 5' end r19 d2, backbone not given here) | 1.20 fold | 0.26 log2
RAG7-169: saRNA duplex; sense UUGACCUUUCUUAGGGACUTT (SEQ ID NO: 61), antisense AGUCCCUAAGAAAGGUCAATT (SEQ ID NO: 225) (sugars from the 5' end r19 d2, backbone not given here) | 1.34 fold | 0.42 log2
RAG7-710: saRNA duplex; sense GUUUUCUUCUCAGCCCAGGTT (SEQ ID NO: 122), antisense CCUGGGCUGAGAAGAAAACTT (SEQ ID NO: 286) (sugars from the 5' end r19 d2, backbone not given here) | 1.18 fold | 0.24 log2
RAG7-830: saRNA duplex; sense AUUGAGGAAACUCCUCCCUTT (SEQ ID NO: 36), antisense AGGGAGGAGUUUCCUCAAUTT (SEQ ID NO: 200) (sugars from the 5' end r19 d2, backbone not given here) | 1.45 fold | 0.54 log2
RAG7-140: saRNA duplex; sense UUUUCCUGCUCUUUGUCCGTT (SEQ ID NO: 74), antisense CGGACAAAGAGCAGGAAAATT (SEQ ID NO: 238) (sugars from the 5' end r19 d2, backbone not given here) | 1.28 fold | 0.36 log2
RAG7-914: saRNA duplex; sense CUUCUUUGAAAGCUCAAAGTT (SEQ ID NO: 143), antisense CUUUGAGCUUUCAAAGAAGTT (SEQ ID NO: 307) (sugars from the 5' end r19 d2, backbone not given here) | 1.14 fold | 0.19 log2
RAG7-188: saRNA duplex; sense UUCUUGUCUCAAUUUGCCUTT (SEQ ID NO: 21), antisense AGGCAAAUUGAGACAAGAATT (SEQ ID NO: 185) (sugars from the 5' end r19 d2, backbone not given here) | 1.55 fold | 0.64 log2
RAG7-698: saRNA duplex; sense GCCCAGGUCCUAUGCAUCCTT (SEQ ID NO: 118), antisense GGAUGCAUAGGACCUGGGCTT (SEQ ID NO: 282) (sugars from the 5' end r19 d2, backbone not given here) | 1.18 fold | 0.24 log2
RAG7-171: saRNA duplex; sense CUUUGACCUUUCUUAGGGATT (SEQ ID NO: 80), antisense UCCCUAAGAAAGGUCAAAGTT (SEQ ID NO: 244) (sugars from the 5' end r19 d2, backbone not given here) | 1.27 fold | 0.34 log2
RAG7-165: saRNA duplex; sense CCUUUCUUAGGGACUUGUUTT (SEQ ID NO: 152), antisense AACAAGUCCCUAAGAAAGGTT (SEQ ID NO: 316) (sugars from the 5' end r19 d2, backbone not given here) | 1.11 fold | 0.16 log2
RAG7-93: saRNA duplex; sense AAGGACACCGUUUCAGGGGTT (SEQ ID NO: 144), antisense CCCCUGAAACGGUGUCCUUTT (SEQ ID NO: 308) (sugars from the 5' end r19 d2, backbone not given here) | 1.14 fold | 0.19 log2
RAG7-850: saRNA duplex; sense UUGAAAGGUUCCGAGGGGCTT (SEQ ID NO: 46), antisense GCCCCUCGGAACCUUUCAATT (SEQ ID NO: 210) (sugars from the 5' end r19 d2, backbone not given here) | 1.39 fold | 0.47 log2
